From patent US20030144310A1 (priority 2001, published 2003)
Each block holds one compound with its values, some of them ahead of it.

Columns and labels:
rNPFF-1 [1] = molecular target: T1, rNPFF-1 (Rattus norvegicus, UniProt Q9EP86); test: Radioligand binding assay, competitive displacement of [125I]1DMeNPFF at cloned NPFF receptors; settings: cloned rat receptor
T1 construct: expressed in transfected cells

rNPFF-2 [2] = molecular target: T2, rNPFF-2 (Rattus norvegicus, UniProt Q9EQD2); test: as above; settings: cloned rat receptor
T2 construct: expressed in transfected cells

rNPFF-1 [3] = molecular target: T1, rNPFF-1; test: Functional activity (EC50 and intrinsic activity relative to NPFF); type: cell-based; settings: for Functional Activity rNPFF-1 I.A. %: intrinsic activity as percentage of maximal response by NPFF; for EC50: tested 0.001 nM to 3600 nM
Description: (§1) The data shown are representative of at least two independent experiments.

rNPFF-2 [4] = molecular target: T2, rNPFF-2; test: as above; type: cell-based; settings: for Functional Activity rNPFF-2 I.A. %: intrinsic activity as percentage of maximal response by NPFF; for EC50: tested 0.001 nM to 3600 nM, read-out: Functional Activity rNPFF-2 EC50
Description: as §1

T2 sequence (Q9EQD2 whole entry): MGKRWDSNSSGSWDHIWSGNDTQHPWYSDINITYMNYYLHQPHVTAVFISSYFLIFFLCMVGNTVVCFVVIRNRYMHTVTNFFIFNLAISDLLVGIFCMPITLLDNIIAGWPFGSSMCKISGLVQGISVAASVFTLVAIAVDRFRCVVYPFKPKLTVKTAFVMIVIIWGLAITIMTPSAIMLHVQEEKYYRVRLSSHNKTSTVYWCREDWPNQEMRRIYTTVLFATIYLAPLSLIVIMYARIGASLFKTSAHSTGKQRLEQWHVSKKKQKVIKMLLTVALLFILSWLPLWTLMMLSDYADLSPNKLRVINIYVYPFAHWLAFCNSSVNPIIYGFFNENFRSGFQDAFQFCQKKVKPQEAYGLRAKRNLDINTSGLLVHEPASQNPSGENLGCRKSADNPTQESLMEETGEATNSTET
T1 sequence (Q9EP86 whole entry): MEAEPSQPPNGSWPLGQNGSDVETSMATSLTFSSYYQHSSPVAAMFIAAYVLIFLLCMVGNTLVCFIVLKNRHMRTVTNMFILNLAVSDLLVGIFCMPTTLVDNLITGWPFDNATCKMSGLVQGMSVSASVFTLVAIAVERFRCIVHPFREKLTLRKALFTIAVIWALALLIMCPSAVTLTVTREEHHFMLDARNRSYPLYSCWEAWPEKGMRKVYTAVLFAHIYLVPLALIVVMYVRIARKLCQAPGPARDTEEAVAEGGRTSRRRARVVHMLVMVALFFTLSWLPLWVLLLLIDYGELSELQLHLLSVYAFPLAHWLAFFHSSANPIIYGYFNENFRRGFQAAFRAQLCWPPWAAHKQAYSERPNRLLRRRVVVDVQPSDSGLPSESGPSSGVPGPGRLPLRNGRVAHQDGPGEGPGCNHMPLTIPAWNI

SMILES: N#Cc1cccc(S(=O)(=O)N[C@@H](CCCNC(=N)N)C(=O)N[C@@H](Cc2ccccc2)C(N)=O)c1 [Compound 1023]
- Ki (rNPFF-1 [1]): 496 nM
- Ki (rNPFF-2 [2]): 9920 nM
- Functional Activity rNPFF-1 I.A. % (rNPFF-1 [3]): 90%
- EC50 (rNPFF-1 [3]): 0.166 µM
- Functional Activity rNPFF-2 I.A. % (rNPFF-2 [4]): 28%
- EC50 (rNPFF-2 [4]): > 3.16 µM

SMILES: N=C(N)NCCC[C@H](NS(=O)(=O)c1c(F)c(F)c(F)c(F)c1F)C(=O)N[C@@H](Cc1ccccc1)C(N)=O [Compound 1024]
- Ki (rNPFF-1 [1]): 486 nM
- Ki (rNPFF-2 [2]): 5400 nM
- Functional Activity rNPFF-1 I.A. % (rNPFF-1 [3]): 69%
- EC50 (rNPFF-1 [3]): 0.72 µM
- Functional Activity rNPFF-2 I.A. % (rNPFF-2 [4]): 43%
- EC50 (rNPFF-2 [4]): > 3.16 µM

SMILES: COc1ccc(Br)cc1S(=O)(=O)N[C@@H](CCCNC(=N)N)C(=O)N[C@@H](Cc1ccccc1)C(N)=O [Compound 1025]
- Ki (rNPFF-1 [1]): 328 nM
- Ki (rNPFF-2 [2]): 4120 nM
- Functional Activity rNPFF-1 I.A. % (rNPFF-1 [3]): 78%
- EC50 (rNPFF-1 [3]): 0.596 µM
- Functional Activity rNPFF-2 I.A. % (rNPFF-2 [4]): 33%
- EC50 (rNPFF-2 [4]): > 3.16 µM

SMILES: N=C(N)NCCC[C@H](NS(=O)(=O)c1ccccc1[N+](=O)[O-])C(=O)N[C@@H](Cc1ccccc1)C(N)=O [Compound 1026]
- Ki (rNPFF-1 [1]): 535 nM
- Ki (rNPFF-2 [2]): 3500 nM
- Functional Activity rNPFF-1 I.A. % (rNPFF-1 [3]): 79%
- EC50 (rNPFF-1 [3]): 0.412 µM
- Functional Activity rNPFF-2 I.A. % (rNPFF-2 [4]): 59%
- EC50 (rNPFF-2 [4]): > 3.16 µM

SMILES: N#Cc1ccccc1S(=O)(=O)N[C@@H](CCCNC(=N)N)C(=O)N[C@@H](Cc1ccccc1)C(N)=O [Compound 1027]
- Ki (rNPFF-1 [1]): 515 nM
- Ki (rNPFF-2 [2]): 6170 nM
- EC50 (rNPFF-1 [3]): 0.183 µM
- EC50 (rNPFF-2 [4]): > 3.16 µM

SMILES: N=C(N)NCCC[C@@H](NS(=O)(=O)c1ccc(F)cc1)C(=O)N[C@@H](Cc1ccccc1)C(N)=O [Compound 1028]
- Ki (rNPFF-1 [1]): 1280 nM
- Ki (rNPFF-2 [2]): 8060 nM
- EC50 (rNPFF-1 [3]): 0.404 µM
- Functional Activity rNPFF-2 I.A. % (rNPFF-2 [4]): 62%
- EC50 (rNPFF-2 [4]): 1.58 µM

SMILES: N=C(N)NCCC[C@@H](NS(=O)(=O)c1ccccc1Br)C(=O)N[C@@H](Cc1ccccc1)C(N)=O [Compound 1030]
- Functional Activity rNPFF-2 I.A. % (rNPFF-2 [4]): 71%

SMILES: COc1ccc(C)cc1S(=O)(=O)N[C@@H](CCCNC(=N)N)C(=O)N[C@@H](Cc1ccccc1)C(N)=O [Compound 2003]
- Ki (rNPFF-2 [2]): > 10000 nM
- Functional Activity rNPFF-1 I.A. % (rNPFF-1 [3]): 102%
- Functional Activity rNPFF-2 I.A. % (rNPFF-2 [4]): 52%
- EC50 (rNPFF-2 [4]): > 3.16 µM

Next, values leading:

- Ki (rNPFF-1 [1]): 1140 nM
- Ki (rNPFF-2 [2]): 3560 nM
- Functional Activity rNPFF-1 I.A. % (rNPFF-1 [3]): 84%
- EC50 (rNPFF-1 [3]): 0.376 µM
- Functional Activity rNPFF-2 I.A. % (rNPFF-2 [4]): 45%
- EC50 (rNPFF-2 [4]): > 3.16 µM
SMILES: N=C(N)NCCC[C@H](NS(=O)(=O)c1ccc(F)c(Cl)c1)C(=O)N[C@@H](Cc1ccccc1)C(N)=O [Compound 1017]

- Ki (rNPFF-1 [1]): 1950 nM
- Ki (rNPFF-2 [2]): 4430 nM
- Functional Activity rNPFF-1 I.A. % (rNPFF-1 [3]): 21%
- EC50 (rNPFF-1 [3]): > 3.16 µM
- Functional Activity rNPFF-2 I.A. % (rNPFF-2 [4]): 10%
- EC50 (rNPFF-2 [4]): 5.62 µM
SMILES: N=C(N)NCCC[C@H](NS(=O)(=O)c1ccc(C(F)(F)F)cc1[N+](=O)[O-])C(=O)N[C@@H](Cc1ccccc1)C(N)=O [Compound 1018]

- Ki (rNPFF-1 [1]): 815 nM
- Ki (rNPFF-2 [2]): 3370 nM
- Functional Activity rNPFF-1 I.A. % (rNPFF-1 [3]): 56%
- EC50 (rNPFF-1 [3]): 2.2 µM
- Functional Activity rNPFF-2 I.A. % (rNPFF-2 [4]): 45%
- EC50 (rNPFF-2 [4]): > 3.16 µM
SMILES: N=C(N)NCCC[C@H](NS(=O)(=O)c1c(Cl)cccc1Cl)C(=O)N[C@@H](Cc1ccccc1)C(N)=O [Compound 1019]

- Ki (rNPFF-1 [1]): 1950 nM
- Ki (rNPFF-2 [2]): 5150 nM
- Functional Activity rNPFF-1 I.A. % (rNPFF-1 [3]): 01%
- EC50 (rNPFF-1 [3]): > 10 µM
- Functional Activity rNPFF-2 I.A. % (rNPFF-2 [4]): 02%
- EC50 (rNPFF-2 [4]): > 10 µM
SMILES: N=C(N)NCCC[C@H](NS(=O)(=O)c1cc(Cl)sc1Cl)C(=O)N[C@@H](Cc1ccccc1)C(N)=O [Compound 1020]

- Ki (rNPFF-1 [1]): 335 nM
- Ki (rNPFF-2 [2]): 2030 nM
- Functional Activity rNPFF-1 I.A. % (rNPFF-1 [3]): 78%
- EC50 (rNPFF-1 [3]): 1.03 µM
- Functional Activity rNPFF-2 I.A. % (rNPFF-2 [4]): 59%
- EC50 (rNPFF-2 [4]): 2.33 µM
SMILES: N=C(N)NCCC[C@H](NS(=O)(=O)c1cc(Cl)ccc1Cl)C(=O)N[C@@H](Cc1ccccc1)C(N)=O [Compound 1021]

- Functional Activity rNPFF-1 I.A. % (rNPFF-1 [3]): 86%
- EC50 (rNPFF-1 [3]): 1.86 µM
- Functional Activity rNPFF-2 I.A. % (rNPFF-2 [4]): 34%
- EC50 (rNPFF-2 [4]): > 3.16 µM
SMILES: N=C(N)NCCC[C@H](NS(=O)(=O)c1ccc(Cl)c(Cl)c1)C(=O)N[C@@H](Cc1ccccc1)C(N)=O [Compound 1022]

- Ki (rNPFF-1 [1]): 399 nM
- Ki (rNPFF-2 [2]): 2690 nM
- Functional Activity rNPFF-1 I.A. % (rNPFF-1 [3]): 30%
- EC50 (rNPFF-1 [3]): 0.477 µM
- Functional Activity rNPFF-2 I.A. % (rNPFF-2 [4]): 86%
- EC50 (rNPFF-2 [4]): > 3.16 µM
SMILES: N=C(N)NCCC[C@H](NS(=O)(=O)c1ccc2ccccc2c1)C(=O)N[C@H](Cc1ccccc1)C(N)=O [Compound 1029]

- Functional Activity rNPFF-2 I.A. % (rNPFF-2 [4]): 09%
SMILES: N=C(N)NCCC[C@H](NS(=O)(=O)c1ccccc1Br)C(=O)N[C@@H](Cc1ccccc1)C(N)=O [Compound 2001]
